Measurements as given in patent publication US10781224B2, “Bis(oxymethyl)phosphinic acid and biogenic metal salts thereof as regulators of plant growth and development” (priority 2016, dated 2020).

Tested on: rice (Diamant variety)
Assay: Rice seed treatment with BHMPA salts: germinating power
Assay type: in vivo
Conditions: for optimum concentration for treating rice seeds before sowing / dry mass of the roots increased by / dry mass of the sprouts increased by / length of the root increased by / length of the sprout increased by / wet mass of the roots increased by / wet mass of the sprouts increased by: rice; for dry mass of the roots increased by / dry mass of the sprouts increased by / length of the root increased by / length of the sprout increased by / wet mass of the roots increased by / wet mass of the sprouts increased by: vs control
Experimental: Experimental versions—soaking seeds in BHMPA solutions and solutions of BHMPA Ca, Mg, Na, Co, Mn, Cu, and Zn salts at 1·10^−6-1·10^−12% concentrations (doses). The studies were conducted in laboratory in Petri dishes; seed bed—two layers of filter paper. 50 seeds soaked in water (control) and in the solutions of the tested compounds (experimental) were placed into each dish. Wheat, corn, and rice seeds were exposed for one hour.
Seed germination energy and rate were calculated in percent as an arithmetic mean of the four experimental results (germination energy on the 4th day, wheat germination on the 8th day, rice and corn germination—on the 7th day). Germination was determined based on the germinating power indicators (length of the roots and sprouts and their wet and dry mass per 100 shoots).
The effect of pre-sowing seed treatment with the claimed BHMPA salts of biogenic metals was studied on winter wheat (Vershin variety), corn (Krasnodar 385 MV variety), and rice (Diamant variety).
The above data describe the seed viability only at the initial stage of germination, while the germination ability at the later stage of germination is defined by the initial germinating power. The method for the determination of the germinating power comprises measuring the height of the sprouts and primary roots, as well as the biomass and the dry mass thereof per 100 seedlings. [M. A. Kartuzova. Initial Germinating Power as Method of Biological Assessment of Seed Quality. Selection and Seed Farming, #2, 1953].

[1] = rice seed treatment, comparison with Melaphen (Table XXXIII), solution 1 · 10^−9%
[2] = rice seeds, solution concentration 1 · 10^−6%
[3] = rice seeds, solution concentration 1 · 10^−7%
[4] = rice seeds, solution concentration 1 · 10^−8%
[5] = rice seeds, solution concentration 1 · 10^−9%
[6] = rice seeds, solution concentration 1 · 10^−10%
[7] = rice seeds, solution concentration 1 · 10^−11%
[8] = rice seeds, solution concentration 1 · 10^−12%
[9] = rice seed treatment, comparison with Melaphen (Table XXXIII), solution 1 · 10^−10%

O.O.O=P([O-])(CO)CO.O=P([O-])(CO)CO.[Mn+2] [Mn-salt, Manganese BHMPA Salt]
optimum concentration for treating rice seeds before sowing: 1·10^−9%
Length, root [1]: 6.8 cm
Length, root, + % to control [1]: 42%
Length, sprout [1]: 4.2 cm
Length, sprout, + % to control [1]: 35%
Mass, dry, root [1]: 0.24 g/100 plantlings
Mass, dry, root, + % to control [1]: 14%
Mass, dry, sprout [1]: 0.28 g/100 plantlings
Mass, dry, sprout, + % to control [1]: 12%
Mass, wet, root [1]: 1.34 g/100 plantlings
Mass, wet, root, + % to control [1]: 37%
Mass, wet, sprout [1]: 2.34 g/100 plantlings
Mass, wet, sprout, + % to control [1]: 55%
Length, root [2]: 6.2 cm
Length, root, + % to control [2]: 3%
Length, sprout [2]: 2.7 cm
Length, sprout, + % to control [2]: 8%
Mass, dry, root [2]: 0.22 g/100 plantlings
Mass, dry, root, + % to control [2]: 10%
Mass, dry, sprout [2]: 0.29 g/100 plantlings
Mass, dry, sprout, + % to control [2]: 11.5%
Mass, wet, root [2]: 1.13 g/100 plantlings
Mass, wet, root, + % to control [2]: 15%
Mass, wet, sprout [2]: 1.80 g/100 plantlings
Mass, wet, sprout, + % to control [2]: 5%
Length, root [3]: 6.4 cm
Length, root, + % to control [3]: 7%
Length, sprout [3]: 2.9 cm
Length, sprout, + % to control [3]: 16%
Mass, dry, root [3]: 0.25 g/100 plantlings
Mass, dry, root, + % to control [3]: 25%
Mass, dry, sprout [3]: 0.36 g/100 plantlings
Mass, dry, sprout, + % to control [3]: 38%
Mass, wet, root [3]: 1.21 g/100 plantlings
Mass, wet, root, + % to control [3]: 23%
Mass, wet, sprout [3]: 2.12 g/100 plantlings
Mass, wet, sprout, + % to control [3]: 23%
Length, root [4]: 6.5 cm
Length, root, + % to control [4]: 8%
Length, sprout [4]: 3.1 cm
Length, sprout, + % to control [4]: 24%
Mass, dry, root [4]: 0.28 g/100 plantlings
Mass, dry, root, + % to control [4]: 40%
Mass, dry, sprout [4]: 0.41 g/100 plantlings
Mass, dry, sprout, + % to control [4]: 58%
Mass, wet, root [4]: 1.30 g/100 plantlings
Mass, wet, root, + % to control [4]: 33%
Mass, wet, sprout [4]: 2.26 g/100 plantlings
Mass, wet, sprout, + % to control [4]: 31%
Length, root [5]: 6.8 cm
Length, root, + % to control [5]: 13%
Length, sprout [5]: 3.3 cm
Length, sprout, + % to control [5]: 32%
Mass, dry, root [5]: 0.32 g/100 plantlings
Mass, dry, root, + % to control [5]: 60%
Mass, dry, sprout [5]: 0.44 g/100 plantlings
Mass, dry, sprout, + % to control [5]: 69%
Mass, wet, root [5]: 1.44 g/100 plantlings
Mass, wet, root, + % to control [5]: 47%
Mass, wet, sprout [5]: 2.41 g/100 plantlings
Mass, wet, sprout, + % to control [5]: 40%
Length, root [6]: 6.7 cm
Length, root, + % to control [6]: 12%
Length, sprout [6]: 3.0 cm
Length, sprout, + % to control [6]: 12%
Mass, dry, root [6]: 0.26 g/100 plantlings
Mass, dry, root, + % to control [6]: 30%
Mass, dry, sprout [6]: 0.39 g/100 plantlings
Mass, dry, sprout, + % to control [6]: 50%
Mass, wet, root [6]: 1.33 g/100 plantlings
Mass, wet, root, + % to control [6]: 36%
Mass, wet, sprout [6]: 2.30 g/100 plantlings
Mass, wet, sprout, + % to control [6]: 34%
Length, root [7]: 6.5 cm
Length, root, + % to control [7]: 8%
Length, sprout [7]: 2.9 cm
Length, sprout, + % to control [7]: 16%
Mass, dry, root [7]: 0.23 g/100 plantlings
Mass, dry, root, + % to control [7]: 15%
Mass, dry, sprout [7]: 0.36 g/100 plantlings
Mass, dry, sprout, + % to control [7]: 38%
Mass, wet, root [7]: 1.29 g/100 plantlings
Mass, wet, root, + % to control [7]: 31%
Mass, wet, sprout [7]: 2.21 g/100 plantlings
Mass, wet, sprout, + % to control [7]: 28%
Length, root [8]: 6.3 cm
Length, root, + % to control [8]: 5%
Length, sprout [8]: 2.7 cm
Length, sprout, + % to control [8]: 8%
Mass, dry, root [8]: 0.20 g/100 plantlings
Mass, dry, root, + % to control [8]: 0%
Mass, dry, sprout [8]: 0.32 g/100 plantlings
Mass, dry, sprout, + % to control [8]: 23%
Mass, wet, root [8]: 1.27 g/100 plantlings
Mass, wet, root, + % to control [8]: 29%
Mass, wet, sprout [8]: 2.14 g/100 plantlings
Mass, wet, sprout, + % to control [8]: 24%
dry mass of the roots increased by (1·10^−9% solution): 60%
dry mass of the sprouts increased by (1·10^−9% solution): 69%
length of the root increased by (1·10^−9% solution): 13%
length of the sprout increased by (1·10^−9% solution): 32%
wet mass of the roots increased by (1·10^−9% solution): 47%
wet mass of the sprouts increased by (1·10^−9% solution): 40%

O=P([O-])(CO)CO.O=P([O-])(CO)CO.[Mg+2] [Mg-salt, Magnesium BHMPA Salt]
optimum concentration for treating rice seeds before sowing: 1·10^−10%
Length, root [9]: 7.2 cm
Length, root, + % to control [9]: 50%
Length, sprout [9]: 4.6 cm
Length, sprout, + % to control [9]: 77%
Mass, dry, root [9]: 0.26 g/100 plantlings
Mass, dry, root, + % to control [9]: 24%
Mass, dry, sprout [9]: 0.30 g/100 plantlings
Mass, dry, sprout, + % to control [9]: 20%
Mass, wet, root [9]: 1.39 g/100 plantlings
Mass, wet, root, + % to control [9]: 42%
Mass, wet, sprout [9]: 2.39 g/100 plantlings
Mass, wet, sprout, + % to control [9]: 58%
Length, root [2]: 6.0 cm
Length, root, + % to control [2]: 13%
Length, sprout [2]: 2.8 cm
Length, sprout, + % to control [2]: 4%
Mass, dry, root [2]: 0.23 g/100 plantlings
Mass, dry, root, + % to control [2]: 4.5%
Mass, dry, sprout [2]: 0.35 g/100 plantlings
Mass, dry, sprout, + % to control [2]: 21%
Mass, wet, root [2]: 1.17 g/100 plantlings
Mass, wet, root, + % to control [2]: 18%
Mass, wet, sprout [2]: 1.96 g/100 plantlings
Mass, wet, sprout, + % to control [2]: 10%
Length, root [3]: 6.4 cm
Length, root, + % to control [3]: 21%
Length, sprout [3]: 2.9 cm
Length, sprout, + % to control [3]: 7%
Mass, dry, root [3]: 0.25 g/100 plantlings
Mass, dry, root, + % to control [3]: 14%
Mass, dry, sprout [3]: 0.40 g/100 plantlings
Mass, dry, sprout, + % to control [3]: 40%
Mass, wet, root [3]: 1.26 g/100 plantlings
Mass, wet, root, + % to control [3]: 27%
Mass, wet, sprout [3]: 2.21 g/100 plantlings
Mass, wet, sprout, + % to control [3]: 24%
Length, root [4]: 6.6 cm
Length, root, + % to control [4]: 24.5%
Length, sprout [4]: 3.0 cm
Length, sprout, + % to control [4]: 11%
Mass, dry, root [4]: 0.26 g/100 plantlings
Mass, dry, root, + % to control [4]: 18%
Mass, dry, sprout [4]: 0.43 g/100 plantlings
Mass, dry, sprout, + % to control [4]: 48%
Mass, wet, root [4]: 1.35 g/100 plantlings
Mass, wet, root, + % to control [4]: 36%
Mass, wet, sprout [4]: 2.31 g/100 plantlings
Mass, wet, sprout, + % to control [4]: 30%
Length, root [5]: 7.0 cm
Length, root, + % to control [5]: 32%
Length, sprout [5]: 3.2 cm
Length, sprout, + % to control [5]: 18.5%
Mass, dry, root [5]: 0.29 g/100 plantlings
Mass, dry, root, + % to control [5]: 32%
Mass, dry, sprout [5]: 0.47 g/100 plantlings
Mass, dry, sprout, + % to control [5]: 62%
Mass, wet, root [5]: 1.46 g/100 plantlings
Mass, wet, root, + % to control [5]: 46%
Mass, wet, sprout [5]: 2.37 g/100 plantlings
Mass, wet, sprout, + % to control [5]: 33%
Length, root [6]: 7.2 cm
Length, root, + % to control [6]: 36%
Length, sprout [6]: 3.8 cm
Length, sprout, + % to control [6]: 41%
Mass, dry, root [6]: 0.35 g/100 plantlings
Mass, dry, root, + % to control [6]: 59%
Mass, dry, sprout [6]: 0.49 g/100 plantlings
Mass, dry, sprout, + % to control [6]: 69%
Mass, wet, root [6]: 1.62 g/100 plantlings
Mass, wet, root, + % to control [6]: 63%
Mass, wet, sprout [6]: 2.52 g/100 plantlings
Mass, wet, sprout, + % to control [6]: 41.5%
Length, root [7]: 6.7 cm
Length, root, + % to control [7]: 26%
Length, sprout [7]: 3.1 cm
Length, sprout, + % to control [7]: 15%
Mass, dry, root [7]: 0.27 g/100 plantlings
Mass, dry, root, + % to control [7]: 23%
Mass, dry, sprout [7]: 0.44 g/100 plantlings
Mass, dry, sprout, + % to control [7]: 52%
Mass, wet, root [7]: 1.44 g/100 plantlings
Mass, wet, root, + % to control [7]: 45%
Mass, wet, sprout [7]: 2.34 g/100 plantlings
Mass, wet, sprout, + % to control [7]: 31%
Length, root [8]: 6.3 cm
Length, root, + % to control [8]: 19%
Length, sprout [8]: 2.9 cm
Length, sprout, + % to control [8]: 7%
Mass, dry, root [8]: 0.23 g/100 plantlings
Mass, dry, root, + % to control [8]: 4.5%
Mass, dry, sprout [8]: 0.39 g/100 plantlings
Mass, dry, sprout, + % to control [8]: 34%
Mass, wet, root [8]: 1.31 g/100 plantlings
Mass, wet, root, + % to control [8]: 32%
Mass, wet, sprout [8]: 2.18 g/100 plantlings
Mass, wet, sprout, + % to control [8]: 22%
dry mass of the roots increased by (1·10^−10% solution): 59%
dry mass of the sprouts increased by (1·10^−10% solution): 69%
length of the root increased by (1·10^−10% solution): 36%
length of the sprout increased by (1·10^−10% solution): 41%
wet mass of the roots increased by (1·10^−10% solution): 63%
wet mass of the sprouts increased by (1·10^−10% solution): 41.5%
